In patent publication US20090227601A1, “Bradykinin 1 Receptor Antagonists” (Amgen Inc., priority 2005, published 2009):

Biological target: T1, hB2 receptor (Homo sapiens, UniProt P30411)
T1 construct: host or cells: CHO-K1
T1 sequence (P30411 1-391): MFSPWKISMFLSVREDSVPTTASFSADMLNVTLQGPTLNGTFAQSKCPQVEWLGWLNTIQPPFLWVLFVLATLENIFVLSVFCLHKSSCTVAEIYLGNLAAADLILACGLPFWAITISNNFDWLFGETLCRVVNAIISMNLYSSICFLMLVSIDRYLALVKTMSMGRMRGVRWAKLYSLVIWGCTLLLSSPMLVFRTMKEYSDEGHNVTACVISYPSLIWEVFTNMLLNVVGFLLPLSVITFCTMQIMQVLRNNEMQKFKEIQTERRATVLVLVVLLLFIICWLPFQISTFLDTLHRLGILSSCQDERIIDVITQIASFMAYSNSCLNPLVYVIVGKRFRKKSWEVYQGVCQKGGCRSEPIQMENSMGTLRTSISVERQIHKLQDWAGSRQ
Assay: In vitro Assay of hB2 Receptor Function using Calcium Flux
Type: cell-based
Conditions: recombinant CHO cells, antagonist IC50 against agonist at EC80
Description: In vitro Assay of hB2 Receptor Function using Calcium Flux The intracellular calcium flux induced by hB2 receptor activation was analyzed using an hB2 recombinant cell line (CHO-K1) purchased from PerkinElmer (Catalog Number: RBHB2C000EA) on a fluorometric imaging plate reader (FLIPR). […] Culture medium was changed every other day. 24 h prior to the FLIPR assay, the hB2/CHO cells were washed once with PBS (Invitrogen) and 10 mL of Versene (1:5000, Invitrogen, Cat# 15040-066) was added to each flask. After 5 min incubation at 37° C., Versene was removed and cells were detached from the flask and resuspended in culture medium. Cells were counted and 25,000 cells/well were plated in 96-well black-sided clear bottom assay plates (Costar #3904). Cells were incubated in a 37° C. CO2 incubator overnight. The media was aspirated from the cells and replaced with 65 μL of dye-loading buffer. The loading buffer was prepared by diluting a stock solution of 0.5 mM Fluo-4 AM (Molecular Probes, dissolved in DMSO containing 10% [w/v] pluronic acid) to a concentration of 1 μM in Clear Dulbecco's Modified Eagle Medium (DMEM) containing 0.1% BSA, 20 mM HEPES, and 2.5 mM probenecid. The cells were dye-loaded for 1 h at RT. The excess dye was removed by washing the cells 2× with assay buffer. The assay buffer consists of Hank's Balanced Salt Solution (HBSS) containing 20 mM HEPES, 0.1% BSA, and 2.5 mM probenecid. After the wash cycles, a volume of 100 μL was left in each well, and the plate was ready to be assayed in the FLIPR System. […] The cell plate and the compound plates were loaded onto the FLIPR and during the assay, fluorescence readings are taken simultaneously from all 96 wells of the cell plate. Ten 1-second readings were taken to establish a stable baseline for each well, then 25 μL from the B1 antagonist plate was rapidly (50 μL/sec.) added. The fluorescence signal was measured in 1-second (1 min) followed by 6-second (2 min) intervals for a total of 3 min to determine if there is any agonist activity with the compounds.

| Molecule | IC50 [nM] |
| --- | --- |
| Cc1ccc(S(=O)(=O)N2C=CNC(=O)[C@H]2CC(=O)NC2CC3CCC(C2)N3C)cc1 (stereo partly drawn) [T-1-34, N-((3-endo)-8-methyl-8-azabicyclo[3.2.1]oct-3-yl)-2-((2R)-1-((4-methylphenyl)-sulfonyl)-3-oxo-1,2,3,4-tetrahydro-2-pyrazinyl)acetamide; and N-((3-exo)-8-methyl-8-azabicyclo[3.2.1]oct-3-yl)-2-((2R)-1-((4-methylphenyl)-sulfonyl)-3-oxo-1,2,3,4-tetrahydro-2-pyrazinyl)acetamide] | 140 |
| Cc1ccc(S(=O)(=O)N2C=CNC(=O)[C@H]2CC(=O)N[C@H]2CC[C@@H](NC(C)C)CC2)cc1 [T-1-35, N-(cis-4-((1-methylethyl)amino)cyclohexyl)-2-((2R)-1-((4-methylphenyl)sulfonyl)-3-oxo-1,2,3,4-tetrahydro-2-pyrazinyl)acetamide] | 420 |
| Cc1ccc(S(=O)(=O)N2C=CNC(=O)[C@H]2CC(=O)NC2CCCCC2C2CCCCC2)cc1 (stereo partly drawn) [T-1-40, N-1,1′-bi(cyclohexyl)-2-yl-2-((2R)-1-((4-methylphenyl)sulfonyl)-3-oxo-1,2,3,4-tetrahydro-2-pyrazinyl)acetamide] | 200 |
| Cc1ccc(S(=O)(=O)N2C=CNC(=O)[C@H]2CC(=O)NC2CCC(N3CCCC(F)C3)CC2(C)C)cc1 (stereo partly drawn) [T-1-41, N-(4-(3-fluoro-1-piperidinyl)-2,2-dimethylcyclohexyl)-2-((2R)-1-((4-methyl-phenyl)sulfonyl)-3-oxo-1,2,3,4-tetrahydro-2-pyrazinyl)acetamide] | 2 |
| Cc1ccc(S(=O)(=O)N2C=CNC(=O)[C@H]2CC(=O)NC2CCN(CCc3ccccc3)CC2)cc1 [T-1-58, N-(1-(2-phenethyl)-4-piperidinyl)-2-((2R)-1-((4-methylphenyl)sulfonyl)-3-oxo-1,2,3,4-tetrahydro-2-pyrazinyl)acetamide] | 20 |
| Cc1ccc(S(=O)(=O)N2C=CNC(=O)[C@H]2CC(=O)NC2CC(C)(C)N(C)C(C)(C)C2)cc1 [T-1-77, 2-((2R)-1-((4-methylphenyl)sulfonyl)-3-oxo-1,2,3,4-tetrahydro-2-pyrazinyl)-N-(1,2,2,6,6-pentamethyl-4-piperidinyl)acetamide] | 20 |
| COCCN1CC[C@@H](NC(=O)C[C@@H]2C(=O)NC=CN2S(=O)(=O)c2ccc(C)cc2)C(C)(C)C1 [T-1-120, N-((4R)-3,3-dimethyl-1-(2-(methyloxy)ethyl)-4-piperidinyl)-2-((2R)-1-((4-methylphenyl)sulfonyl)-3-oxo-1,2,3,4-tetrahydro-2-pyrazinyl)acetamide] | 1 |
| Cc1ccc(S(=O)(=O)N2C=CNC(=O)[C@H]2CC(=O)N(C)C2CCN(C)CC2)cc1 [T-2-1, 2-((2R)-1-((4-methylphenyl)sulfonyl)-3-oxo-1,2,3,4-tetrahydro-2-pyrazinyl)-N-methyl-N-(1-methyl-4-piperidinyl)acetamide] | 3 |
| COc1ccc(C2CN(C(=O)C[C@@H]3C(=O)NC=CN3S(=O)(=O)c3ccc(C)cc3)CCS2)cc1 (stereo partly drawn) [T-3-2, (3R)-3-(2-(2-(4-(methyloxy)phenyl)-4-thiomorpholinyl)-2-oxoethyl)-4-((4-methyl-phenyl)sulfonyl)-3,4-dihydro-2(1H)-pyrazinone] | 130 |
| Cc1ccc(S(=O)(=O)N2C=CNC(=O)[C@H]2CC(=O)N2CCCC2c2ccc(Cl)cc2)cc1 (stereo partly drawn) [T-3-3, (3R)-3-(2-(2-(4-chlorophenyl)-1-pyrrolidinyl)-2-oxoethyl)-4-((4-methylphenyl)-sulfonyl)-3,4-dihydro-2(1H)-pyrazinone] | 1000 |
| Cc1cc(S(=O)(=O)N2C=CNC(=O)[C@H]2CC(=O)N2CCC(N3CCCCC3)CC2)c(C)cc1Cl [T-3-8, (3R)-3-(2-(1,4′-bipiperidin-1′-yl)-2-oxoethyl)-4-((4-chloro-2,5-dimethylphenyl)-sulfonyl)-3,4-dihydro-2(1H)-pyrazinone] | 270 |
| Cc1ccc(S(=O)(=O)N2C=CNC(=O)[C@H]2CC(=O)N2C[C@@H](N)[C@H](c3ccccc3)C2)cc1 [T-3-10, (3R)-3-(2-((3S)-3-(amino)-4(R)-4-phenyl-1-pyrrolidinyl)-2-oxoethyl)-4-((4-methylphenyl)sulfonyl)-3,4-dihydro-2(1H)-pyrazinone] | 270 |
| Cc1cc(S(=O)(=O)N2C=CNC(=O)[C@H]2CC(=O)N2CCC(CO)CC2)c(C)cc1Cl [T-3-15, (3R)-4-((4-chloro-2,5-dimethylphenyl)sulfonyl)-3-(2-(4-(hydroxymethyl)-1-piperidinyl)-2-oxoethyl)-3,4-dihydro-2(1H)-pyrazinone] | 940 |
| Cc1cc(S(=O)(=O)N2C=CNC(=O)[C@H]2CC(=O)N2CCC(CN3CCCC3)CC2)c(C)cc1Cl [T-3-18, (3R)-4-((4-chloro-2,5-dimethylphenyl)sulfonyl)-3-(2-oxo-2-(4-(1-pyrrolidinylmethyl)-1-piperidinyl)ethyl)-3,4-dihydro-2(1H)-pyrazinone] | 160 |
| Cc1cc(S(=O)(=O)N2C=CNC(=O)[C@H]2CC(=O)N2CCC3(CCNC3)C2)c(C)cc1Cl (stereo partly drawn) [T-3-26, (3R)-4-((4-chloro-2,5-dimethylphenyl)sulfonyl)-3-(2-(2,7-diazaspiro[4.4]non-2-yl)-2-oxoethyl)-3,4-dihydro-2(1H)-pyrazinone] | 15 |
| Cc1cc(S(=O)(=O)N2C=CNC(=O)[C@H]2CC(=O)N2CCC3(CCN(C4CC4)C3)C2)c(C)cc1Cl (stereo partly drawn) [T-3-38, (3R)-4-((4-chloro-2,5-dimethylphenyl)sulfonyl)-3-(2-(7-cyclopropyl-2,7-diazaspiro[4.4]non-2-yl)-2-oxoethyl)-3,4-dihydro-2(1H)-pyrazinone] | 5.1 |
| Cc1ccc(S(=O)(=O)N2C=CNC(=O)[C@H]2CC(=O)N2CCC(NC(=O)c3ccccc3)CC2)cc1 [T-3-40, N-(1-(2-((2R)-1-((4-methylphenyl)sulfonyl)-3-oxo-1,2,3,4-tetrahydro-2-pyrazinyl)acetyl)-4-piperidinyl)benzamide] | > 4000 |
| Cc1ccc(S(=O)(=O)N2C=CNC(=O)[C@H]2CC(=O)N2CCCC2c2ccccc2)cc1 (stereo partly drawn) [T-3-43, (3R)-4-((4-methylphenyl)sulfonyl)-3-(2-oxo-2-(2RS-phenyl-1-pyrrolidinyl)ethyl)-3,4-dihydro-2(1H)-pyrazinone] | 2600 |
| COc1ccc(CC2CCCN2C(=O)C[C@@H]2C(=O)NC=CN2S(=O)(=O)c2ccc(C)cc2)cc1 (stereo partly drawn) [T-3-47, (3R)-3-(2-(2-RS-((4-(methyloxy)phenyl)methyl)-1-pyrrolidinyl)-2-oxoethyl)-4-((4-methylphenyl)sulfonyl)-3,4-dihydro-2(1H)-pyrazinone] | 390 |
| Cc1ccc(C2CCN(C(=O)C[C@@H]3C(=O)NC=CN3S(=O)(=O)c3ccc(C)cc3)CC2)cc1 [T-3-48, (3R)-3-(2-(4-(4-methylphenyl)-1-piperidinyl)-2-oxoethyl)-4-((4-methylphenyl)-sulfonyl)-3,4-dihydro-2(1H)-pyrazinone] | 1600 |
| Cc1ccc(S(=O)(=O)N2C=CNC(=O)[C@H]2CC(=O)N2CCCC2c2cc3ccccc3[nH]2)cc1 (stereo partly drawn) [T-3-50, (3R)-3-(2-(2-RS-(1H-indol-2-yl)-1-pyrrolidinyl)-2-oxoethyl)-4-((4-methylphenyl)sulfonyl)-3,4-dihydro-2(1H)-pyrazinone] | > 4000 |
| N-((1R)-2,2-dimethyl-4-oxocyclohexyl)-2-((2R)-1-((4-methylphenyl)sulfonyl)-3-oxo-1,2,3,4-tetrahydro-2-pyrazinyl)acetamide; and N-((1S)-2,2-dimethyl-4-oxocyclohexyl)-2-((2R)-1-((4-methylphenyl)sulfonyl)-3-oxo-1,2,3,4-tetrahydro-2-pyrazinyl)acetamide [T-1-37] | 19 |
| N-((3R)-1-(1-methylethyl)-3-piperidinyl)-2-((2R)-1-((4-methylphenyl)sulfonyl)-3-oxo-1,2,3,4-tetrahydro-2-pyrazinyl)acetamide; and N-((3S)-1-(1-methylethyl)-3-piperidinyl)-2-((2R)-1-((4-methylphenyl)sulfonyl)-3-oxo-1,2,3,4-tetrahydro-2-pyrazinyl)acetamide [T-1-11] | 530 |
